Laboratory results published in the NIST ThermoML archive (doi:10.1021/je9003806).

Conditions: 101.33 kPa, Liquid

CCOC(=O)CC(=O)OCC [diethyl 1,3-propanedioate]
Conditions | mass density [kg/m3]
278.15 K | 1071.04
288.14 K | 1060.33
298.15 K | 1049.6
313.15 K | 1033.5
328.15 K | 1017.34
338.15 K | 1006.5
348.15 K | 995.631
358.15 K | 984.697
